Laboratory results as given in patent US20260028354A1, “TETRAHYDRONAPHTHALENE DERIVATIVES AS ESTROGEN RECEPTOR DEGRADERS” (REGENT OF THE UNIVERSITY OF MICHIGAN, priority 2022, published 2026).

What was measured:
ER in T47D cells = ER in T47D cells (Homo sapiens (Human), UniProt P03372); assay: In-cell Western (ICW) ER degradation assay in T47D cells; format: cell-based; settings: 16 hrs treatment; for DC50: ER degradation; for Dmax: maximal ER degradation, read-out: T47D Dmax
CRBN/DDB1 = CRBN/DDB1 (Homo sapiens (Human), UniProt Q96SW2); format: binding; settings: His tagged CRBN+DDB1, Cy5-labeled Thalidomide probe, one hour; read-out: CRBN HTRF IC50
Chain of CRBN/DDB1 (Q96SW2 whole entry, species assumed): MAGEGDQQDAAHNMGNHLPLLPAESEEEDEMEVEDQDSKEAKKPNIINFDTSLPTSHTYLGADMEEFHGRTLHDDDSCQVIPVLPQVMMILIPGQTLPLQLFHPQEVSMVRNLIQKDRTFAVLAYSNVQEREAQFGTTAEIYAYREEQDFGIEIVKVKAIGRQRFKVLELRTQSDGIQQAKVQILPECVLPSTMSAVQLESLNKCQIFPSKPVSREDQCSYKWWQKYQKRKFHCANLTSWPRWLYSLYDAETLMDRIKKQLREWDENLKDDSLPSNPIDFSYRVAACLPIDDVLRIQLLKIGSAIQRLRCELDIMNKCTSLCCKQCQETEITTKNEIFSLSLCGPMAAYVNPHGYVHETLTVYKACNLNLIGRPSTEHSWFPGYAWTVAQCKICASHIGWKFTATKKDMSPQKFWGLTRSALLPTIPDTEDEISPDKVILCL
Chain of CRBN/DDB1 (Q16531 whole entry partner, species assumed): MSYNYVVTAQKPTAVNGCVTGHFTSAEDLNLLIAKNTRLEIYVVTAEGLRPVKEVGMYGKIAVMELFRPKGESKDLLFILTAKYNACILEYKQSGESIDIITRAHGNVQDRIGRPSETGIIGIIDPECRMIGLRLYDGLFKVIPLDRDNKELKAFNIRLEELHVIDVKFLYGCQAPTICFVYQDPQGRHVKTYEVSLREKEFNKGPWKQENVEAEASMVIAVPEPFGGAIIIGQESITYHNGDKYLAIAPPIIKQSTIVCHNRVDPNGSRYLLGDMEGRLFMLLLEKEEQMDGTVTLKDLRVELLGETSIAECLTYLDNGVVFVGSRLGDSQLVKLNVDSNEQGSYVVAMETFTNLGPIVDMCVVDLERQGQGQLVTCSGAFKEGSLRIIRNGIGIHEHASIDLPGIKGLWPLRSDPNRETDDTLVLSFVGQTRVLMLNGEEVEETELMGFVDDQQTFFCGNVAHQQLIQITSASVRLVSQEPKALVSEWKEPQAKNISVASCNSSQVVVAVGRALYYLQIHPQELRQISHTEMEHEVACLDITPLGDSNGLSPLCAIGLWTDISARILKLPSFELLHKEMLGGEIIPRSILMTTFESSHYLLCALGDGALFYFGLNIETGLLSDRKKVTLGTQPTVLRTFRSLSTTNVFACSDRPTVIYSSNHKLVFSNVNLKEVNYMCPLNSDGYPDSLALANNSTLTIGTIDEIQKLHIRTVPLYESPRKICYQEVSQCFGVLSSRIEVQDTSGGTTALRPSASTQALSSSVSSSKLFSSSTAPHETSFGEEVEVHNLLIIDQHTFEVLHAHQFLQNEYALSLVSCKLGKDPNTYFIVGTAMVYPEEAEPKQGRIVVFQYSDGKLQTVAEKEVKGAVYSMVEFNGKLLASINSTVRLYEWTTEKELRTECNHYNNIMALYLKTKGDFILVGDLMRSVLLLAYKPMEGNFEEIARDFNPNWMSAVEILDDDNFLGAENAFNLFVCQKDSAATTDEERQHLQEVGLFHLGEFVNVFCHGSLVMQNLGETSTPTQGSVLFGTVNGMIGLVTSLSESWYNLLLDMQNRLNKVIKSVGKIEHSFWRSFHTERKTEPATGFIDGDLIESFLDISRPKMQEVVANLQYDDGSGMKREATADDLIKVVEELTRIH
Description: The binding potency was determined using HTRF assay technology (Perkin Elmer). Compounds were serially diluted in DMSO and […] volume was transferred to white 384-well plate.

ER in MCF-7 cells = ER in MCF-7 cells (Homo sapiens (Human), UniProt P03372); assay: In-cell Western (ICW) ER degradation assay in MCF-7 cells; format: cell-based; settings: 16 hrs treatment; for Dmax: MCF7, MCF-7, maximal ER degradation, read-out: MCF7 Dmax; for DC50: MCF-7, ER degradation, read-out: MCF7 DC50
Chain of ER in MCF-7 cells (P03372 whole entry): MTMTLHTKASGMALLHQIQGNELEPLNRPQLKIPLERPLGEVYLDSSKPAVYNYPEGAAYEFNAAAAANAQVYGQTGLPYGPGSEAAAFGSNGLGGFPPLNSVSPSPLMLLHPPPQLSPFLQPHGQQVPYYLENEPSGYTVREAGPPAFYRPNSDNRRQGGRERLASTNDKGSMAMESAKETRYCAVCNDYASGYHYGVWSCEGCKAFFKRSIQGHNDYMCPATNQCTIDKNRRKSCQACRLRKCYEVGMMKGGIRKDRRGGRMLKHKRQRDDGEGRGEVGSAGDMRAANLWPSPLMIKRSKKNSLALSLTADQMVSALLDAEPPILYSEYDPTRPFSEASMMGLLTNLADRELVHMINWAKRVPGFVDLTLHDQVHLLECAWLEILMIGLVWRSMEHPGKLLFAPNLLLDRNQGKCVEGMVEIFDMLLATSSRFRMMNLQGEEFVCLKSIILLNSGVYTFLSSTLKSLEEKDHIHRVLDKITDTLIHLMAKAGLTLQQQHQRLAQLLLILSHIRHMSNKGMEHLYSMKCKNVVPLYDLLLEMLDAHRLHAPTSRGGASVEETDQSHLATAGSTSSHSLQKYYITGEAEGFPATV

Chain of ER in T47D cells (P03372 whole entry): as above

| SMILES | DC50 (ER in T47D cells) [µM] | Dmax (ER in T47D cells) [%] | IC50 (CRBN/DDB1) [µM] | Dmax (ER in MCF-7 cells) [%] | DC50 (ER in MCF-7 cells) [µM] |
| --- | --- | --- | --- | --- | --- |
| O=C1CC[C@@H](Nc2ccc(C3CCN(C[C@@H]4COC5(CCN(c6ccc([C@H]7c8ccc(O)cc8CC[C@H]7c7ccccc7)cc6)CC5)C4)CC3)c(F)c2)C(=O)N1 (single isomer, unassigned) [Compound A60] | > 0.1 | < 25 | 0.05 to 0.5 | 25 to 50 | > 0.1 |
| O=C1CC[C@H](Nc2ccc(C3CCN(C[C@@H]4COC5(CCN(c6ccc([C@@H]7c8ccc(O)cc8CC[C@@H]7c7ccccc7)cc6)CC5)C4)CC3)c(F)c2)C(=O)N1 (single isomer, unassigned) [Compound A61] | > 0.1 | < 25 | 0.05 to 0.5 | < 25 | > 0.1 |
| O=C1CC[C@@H](Nc2ccc(C3CCN(C[C@@H]4COC5(CCN(c6ccc([C@@H]7c8ccc(O)cc8CC[C@@H]7c7ccccc7)cc6)CC5)C4)CC3)c(F)c2)C(=O)N1 (single isomer, unassigned) [Compound A62] | 0.001 to 0.01 | 25 to 50 | 0.05 to 0.5 | 25 to 50 | 0.01 to 0.1 |
| O=C1CC[C@@H](Nc2ccc(C3CCN(CC4CC5(CCN(c6ccc([C@@H]7c8ccc(O)cc8CC[C@@H]7c7ccccc7)cc6)CC5)C4)CC3)cc2)C(=O)N1 (single isomer, unassigned) [Compound A66] | 0.001 to 0.01 | 50 to 75 | 0.05 to 0.5 | 50 to 75 | 0.001 to 0.01 |
| COc1cc(N2CCC3(CC2)CC(CN2CCN4c5ccc(C(=O)N[C@H]6CCC(=O)NC6=O)nc5OC[C@@H]4C2)C3)ccc1[C@H]1c2ccc(O)cc2CC[C@H]1c1ccccc1 (single isomer, unassigned) [Compound A107] | < 0.001 | 50 to 75 | > 5 | 50 to 75 | < 0.001 |
| COc1cc(N2CCC3(CC2)CC(CN2CCC(c4ccc(N[C@H]5CCC(=O)NC5=O)c(F)c4)CC2)C3)ccc1[C@@H]1c2ccc(O)cc2CC[C@@H]1c1ccccc1 (single isomer, unassigned) [Compound A109] | < 0.001 | 50 to 75 | 0.5 to 5 | 25 to 50 | < 0.001 |
| O=C1CC[C@H](N2Cc3c(ccc4c3OC[C@H]3CN(CC5CC6(CCN(c7ccc([C@H]8c9ccc(O)cc9CC[C@H]8c8ccccc8)cn7)CC6)C5)CCN43)C2=O)C(=O)N1 (single isomer, unassigned) [Compound A113] | 0.01 to 0.1 | 25 to 50 | 0.05 to 0.5 | 25 to 50 | 0.01 to 0.1 |
| O=C1CC[C@H](N2Cc3c(ccc4c3OC[C@H]3CN(CC5CCC6(CC5)CN(c5ncc([C@H]7c8ccc(O)cc8CC[C@H]7c7ccccc7)cn5)C6)CCN43)C2=O)C(=O)N1 (single isomer, unassigned) [Compound A155] | 0.01 to 0.1 | < 25 | 0.05 to 0.5 | 25 to 50 | 0.001 to 0.01 |
| O=C1CCC(NC(=O)c2ccc3c(n2)OC[C@H]2CN(CC4CCN(c5ccc([C@H]6c7ccc(O)cc7CC[C@H]6c6ccccc6)cc5)CC4)CCN32)C(=O)N1 (stereo in doubt) [Compound A4, (4aR)-N-(2,6-dioxopiperidin-3-yl)-3-((1-(4-((1S,2R)-6-hydroxy-2-phenyl-1,2,3,4-tetrahydronaphthalen-1-yl)-phenyl)piperidin-4-yl)meth-yl)-1,2,3,4,4a,5-hexahydro-pyrazino[1,2-d]pyrido[2,3-b] [1,4]oxazine-8-carboxamide] | < 0.001 | 50 to 75 | 0.5 to 5 | 50 to 75 | 0.001 to 0.01 |
